Tests used:
Assay in all cases: biochemical
Format in all cases: biochemical
382 unique human kinases [1] = biological target: T1, 382 unique human kinases (Homo sapiens, UniProt Q9Y6M4); conditions: kinase CK1g3, compound 10 uM; for remaining activity at 10 µM: read-out: % Enzyme Activity (relative to DMSO controls)
T1 construct: purchased Reaction Biology (HotSpot contract assay)

382 unique human kinases [2] = biological target: T2, 382 unique human kinases (Homo sapiens, UniProt Q9BZL6); conditions: kinase PKD2/PRKD2, compound 10 uM; for remaining activity at 10 µM: read-out: % Enzyme Activity (relative to DMSO controls)
T2 construct: purchased Reaction Biology (HotSpot contract assay)
T2 sequence (Q9BZL6 1-878): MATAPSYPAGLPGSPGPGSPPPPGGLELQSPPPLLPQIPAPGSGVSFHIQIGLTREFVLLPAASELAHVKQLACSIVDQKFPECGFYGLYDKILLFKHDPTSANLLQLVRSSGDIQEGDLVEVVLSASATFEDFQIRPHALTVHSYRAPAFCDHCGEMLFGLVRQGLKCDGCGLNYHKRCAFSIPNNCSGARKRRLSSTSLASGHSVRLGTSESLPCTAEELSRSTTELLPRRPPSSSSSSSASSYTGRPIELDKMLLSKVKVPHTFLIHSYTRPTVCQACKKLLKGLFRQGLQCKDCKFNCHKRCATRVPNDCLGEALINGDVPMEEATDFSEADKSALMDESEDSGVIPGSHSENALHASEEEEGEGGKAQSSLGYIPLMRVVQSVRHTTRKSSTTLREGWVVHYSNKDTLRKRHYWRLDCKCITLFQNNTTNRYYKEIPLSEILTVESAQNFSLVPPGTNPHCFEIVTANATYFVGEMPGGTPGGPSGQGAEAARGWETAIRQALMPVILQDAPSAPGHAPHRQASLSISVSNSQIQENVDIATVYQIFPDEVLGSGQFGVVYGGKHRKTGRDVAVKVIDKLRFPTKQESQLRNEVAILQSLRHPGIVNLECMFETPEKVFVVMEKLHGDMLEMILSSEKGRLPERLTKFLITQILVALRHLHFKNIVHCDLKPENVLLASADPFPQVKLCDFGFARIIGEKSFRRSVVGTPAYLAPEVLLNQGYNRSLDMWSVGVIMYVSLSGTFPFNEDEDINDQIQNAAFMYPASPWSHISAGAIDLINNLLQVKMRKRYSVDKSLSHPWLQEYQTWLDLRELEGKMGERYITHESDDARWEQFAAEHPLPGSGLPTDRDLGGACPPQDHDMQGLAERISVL

382 unique human kinases [3] = biological target: T3, 382 unique human kinases (Homo sapiens, UniProt P42680); conditions: TEC, 10 uM; for remaining activity at 10 µM: read-out: % Enzyme Activity (relative to DMSO controls)
T3 construct: purchased Reaction Biology (HotSpot contract assay)
T3 sequence (P42680 1-631): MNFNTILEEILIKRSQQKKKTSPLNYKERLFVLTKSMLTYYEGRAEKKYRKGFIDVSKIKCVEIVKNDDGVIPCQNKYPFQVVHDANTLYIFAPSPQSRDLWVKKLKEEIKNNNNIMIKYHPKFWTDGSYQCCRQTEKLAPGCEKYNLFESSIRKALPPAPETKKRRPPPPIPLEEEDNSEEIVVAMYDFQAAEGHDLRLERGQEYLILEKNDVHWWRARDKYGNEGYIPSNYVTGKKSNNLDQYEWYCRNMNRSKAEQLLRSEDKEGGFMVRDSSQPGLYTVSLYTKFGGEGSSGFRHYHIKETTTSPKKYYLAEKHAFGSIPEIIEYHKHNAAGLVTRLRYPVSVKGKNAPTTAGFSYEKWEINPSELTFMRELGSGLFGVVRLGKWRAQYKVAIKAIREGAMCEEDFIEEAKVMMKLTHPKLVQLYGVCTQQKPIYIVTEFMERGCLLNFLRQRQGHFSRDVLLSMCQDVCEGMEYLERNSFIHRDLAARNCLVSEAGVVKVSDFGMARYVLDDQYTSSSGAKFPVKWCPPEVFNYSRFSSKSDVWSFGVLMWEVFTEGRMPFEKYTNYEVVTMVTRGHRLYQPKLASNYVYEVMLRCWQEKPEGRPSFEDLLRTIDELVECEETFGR

382 unique human kinases [4] = biological target: T4, 382 unique human kinases (Homo sapiens, UniProt Q13233); conditions: kinase MEKK1, compound 10 uM; for remaining activity at 10 µM: read-out: % Enzyme Activity (relative to DMSO controls)
T4 construct: purchased Reaction Biology (HotSpot contract assay)

382 unique human kinases [5] = biological target: T5, 382 unique human kinases (Homo sapiens, UniProt Q9P2K8); conditions: kinase EIF2AK4, compound 10 uM; for remaining activity at 10 µM: read-out: % Enzyme Activity (relative to DMSO controls)
T5 construct: purchased Reaction Biology (HotSpot contract assay)
T5 sequence (Q9P2K8 whole entry): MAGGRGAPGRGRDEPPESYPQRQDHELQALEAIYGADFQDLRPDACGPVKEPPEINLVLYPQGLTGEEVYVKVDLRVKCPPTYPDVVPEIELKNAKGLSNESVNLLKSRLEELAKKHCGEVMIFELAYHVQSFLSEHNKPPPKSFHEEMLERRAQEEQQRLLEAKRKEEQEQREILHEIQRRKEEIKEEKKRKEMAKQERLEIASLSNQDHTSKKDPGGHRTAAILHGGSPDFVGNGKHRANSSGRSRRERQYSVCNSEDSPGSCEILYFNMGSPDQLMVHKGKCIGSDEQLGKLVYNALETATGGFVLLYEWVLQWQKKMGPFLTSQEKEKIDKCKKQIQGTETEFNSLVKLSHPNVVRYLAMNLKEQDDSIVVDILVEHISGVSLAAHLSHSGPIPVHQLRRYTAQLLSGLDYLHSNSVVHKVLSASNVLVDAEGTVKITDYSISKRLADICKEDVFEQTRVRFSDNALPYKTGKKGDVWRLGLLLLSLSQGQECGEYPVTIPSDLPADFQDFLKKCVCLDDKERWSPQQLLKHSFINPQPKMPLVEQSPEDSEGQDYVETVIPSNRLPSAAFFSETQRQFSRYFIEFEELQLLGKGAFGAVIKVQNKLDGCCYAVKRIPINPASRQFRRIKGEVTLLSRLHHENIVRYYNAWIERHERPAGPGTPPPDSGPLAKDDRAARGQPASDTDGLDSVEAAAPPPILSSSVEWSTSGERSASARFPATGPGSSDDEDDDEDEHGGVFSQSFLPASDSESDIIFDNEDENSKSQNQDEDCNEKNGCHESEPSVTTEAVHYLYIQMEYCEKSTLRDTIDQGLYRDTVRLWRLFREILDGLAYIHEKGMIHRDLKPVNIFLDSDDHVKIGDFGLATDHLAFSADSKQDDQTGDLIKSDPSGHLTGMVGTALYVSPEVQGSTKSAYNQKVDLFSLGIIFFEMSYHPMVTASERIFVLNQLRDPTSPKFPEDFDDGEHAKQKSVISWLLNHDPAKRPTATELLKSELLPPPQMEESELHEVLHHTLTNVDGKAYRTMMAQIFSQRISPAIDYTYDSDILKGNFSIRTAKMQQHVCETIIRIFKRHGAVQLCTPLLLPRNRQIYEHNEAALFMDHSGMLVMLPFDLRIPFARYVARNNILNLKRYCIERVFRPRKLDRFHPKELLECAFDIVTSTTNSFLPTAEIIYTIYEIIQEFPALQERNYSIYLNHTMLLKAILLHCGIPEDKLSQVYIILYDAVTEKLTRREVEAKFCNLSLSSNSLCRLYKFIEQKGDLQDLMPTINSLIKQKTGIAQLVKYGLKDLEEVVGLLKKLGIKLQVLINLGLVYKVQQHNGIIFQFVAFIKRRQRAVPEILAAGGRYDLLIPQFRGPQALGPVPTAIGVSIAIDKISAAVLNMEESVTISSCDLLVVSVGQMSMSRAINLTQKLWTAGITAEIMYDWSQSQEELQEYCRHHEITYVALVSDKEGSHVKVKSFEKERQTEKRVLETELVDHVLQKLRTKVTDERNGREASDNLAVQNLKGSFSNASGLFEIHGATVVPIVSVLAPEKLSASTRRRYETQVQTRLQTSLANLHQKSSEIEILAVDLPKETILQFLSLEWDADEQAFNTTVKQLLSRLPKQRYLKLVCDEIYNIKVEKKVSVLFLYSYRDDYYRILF

382 unique human kinases [6] = biological target: T6, 382 unique human kinases (Homo sapiens, UniProt P30291); conditions: kinase WEE1, compound 10 uM; for remaining activity at 10 µM: read-out: % Enzyme Activity (relative to DMSO controls)
T6 construct: purchased Reaction Biology (HotSpot contract assay)
T6 sequence (P30291 whole entry): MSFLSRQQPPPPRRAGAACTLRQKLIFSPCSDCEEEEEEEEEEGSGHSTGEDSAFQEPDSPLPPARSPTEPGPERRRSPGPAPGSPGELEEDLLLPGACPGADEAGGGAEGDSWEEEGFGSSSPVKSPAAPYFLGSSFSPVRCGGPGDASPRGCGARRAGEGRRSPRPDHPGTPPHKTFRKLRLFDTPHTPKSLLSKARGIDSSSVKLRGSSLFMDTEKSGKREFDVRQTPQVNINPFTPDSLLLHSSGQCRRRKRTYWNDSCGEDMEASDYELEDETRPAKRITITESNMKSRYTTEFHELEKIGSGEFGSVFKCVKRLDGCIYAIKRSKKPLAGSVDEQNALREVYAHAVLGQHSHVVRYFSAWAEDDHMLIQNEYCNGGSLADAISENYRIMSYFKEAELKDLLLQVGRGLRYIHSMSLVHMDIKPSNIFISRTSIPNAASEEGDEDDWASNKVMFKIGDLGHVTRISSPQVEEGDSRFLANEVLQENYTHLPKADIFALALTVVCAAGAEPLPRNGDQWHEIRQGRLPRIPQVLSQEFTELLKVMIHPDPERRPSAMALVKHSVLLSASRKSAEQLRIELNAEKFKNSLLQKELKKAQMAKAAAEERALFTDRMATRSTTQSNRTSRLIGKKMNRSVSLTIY

382 unique human kinases [7] = biological target: T7, 382 unique human kinases (Homo sapiens, UniProt O96017); conditions: kinase CHK2, compound 10 uM; for remaining activity at 10 µM: read-out: % Enzyme Activity (relative to DMSO controls)
T7 construct: purchased Reaction Biology (HotSpot contract assay)
T7 sequence (O96017 whole entry): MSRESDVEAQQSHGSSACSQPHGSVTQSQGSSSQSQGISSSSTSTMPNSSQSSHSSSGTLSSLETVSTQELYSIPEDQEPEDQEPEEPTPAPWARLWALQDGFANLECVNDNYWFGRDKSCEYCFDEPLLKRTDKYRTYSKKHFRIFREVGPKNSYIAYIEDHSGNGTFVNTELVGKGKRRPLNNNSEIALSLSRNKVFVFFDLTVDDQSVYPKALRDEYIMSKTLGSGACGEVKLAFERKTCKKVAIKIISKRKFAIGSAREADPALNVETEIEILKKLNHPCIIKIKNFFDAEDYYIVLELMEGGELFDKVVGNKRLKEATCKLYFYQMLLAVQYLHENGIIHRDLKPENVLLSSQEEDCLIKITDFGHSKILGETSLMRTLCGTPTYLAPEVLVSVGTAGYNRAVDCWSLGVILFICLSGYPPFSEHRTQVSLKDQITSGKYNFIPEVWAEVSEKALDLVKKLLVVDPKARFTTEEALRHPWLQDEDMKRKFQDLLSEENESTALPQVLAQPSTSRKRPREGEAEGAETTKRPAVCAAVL

382 unique human kinases [8] = biological target: T8, 382 unique human kinases (Homo sapiens, UniProt P07947); conditions: YES/YES1, [ATP] 50 µM
T8 construct: purchased Reaction Biology (HotSpot contract assay)
T8 sequence (P07947 whole entry): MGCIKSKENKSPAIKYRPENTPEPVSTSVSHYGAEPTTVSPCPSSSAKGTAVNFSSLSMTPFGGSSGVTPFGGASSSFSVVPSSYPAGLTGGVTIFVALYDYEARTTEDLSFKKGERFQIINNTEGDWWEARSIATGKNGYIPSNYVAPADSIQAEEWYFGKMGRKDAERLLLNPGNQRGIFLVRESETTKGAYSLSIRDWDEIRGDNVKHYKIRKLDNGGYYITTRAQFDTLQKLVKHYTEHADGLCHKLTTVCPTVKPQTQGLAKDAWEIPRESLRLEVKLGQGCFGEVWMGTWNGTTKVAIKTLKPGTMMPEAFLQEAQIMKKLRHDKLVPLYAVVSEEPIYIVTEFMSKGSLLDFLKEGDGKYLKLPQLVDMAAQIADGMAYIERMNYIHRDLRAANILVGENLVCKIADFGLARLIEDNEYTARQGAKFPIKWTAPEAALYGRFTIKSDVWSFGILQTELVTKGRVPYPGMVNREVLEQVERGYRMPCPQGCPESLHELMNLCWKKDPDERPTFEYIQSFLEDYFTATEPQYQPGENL

382 unique human kinases [9] = biological target: T9, 382 unique human kinases (Homo sapiens, UniProt P08581, T992I); conditions: c-MET (T992I), 10 uM; for remaining activity at 10 µM: read-out: % Enzyme Activity (relative to DMSO controls)
T9 construct: purchased Reaction Biology (HotSpot contract assay)

[10] = compound 10 uM, read-out: % Enzyme Activity (relative to DMSO controls)

T1 sequence (Q9Y6M4 whole entry): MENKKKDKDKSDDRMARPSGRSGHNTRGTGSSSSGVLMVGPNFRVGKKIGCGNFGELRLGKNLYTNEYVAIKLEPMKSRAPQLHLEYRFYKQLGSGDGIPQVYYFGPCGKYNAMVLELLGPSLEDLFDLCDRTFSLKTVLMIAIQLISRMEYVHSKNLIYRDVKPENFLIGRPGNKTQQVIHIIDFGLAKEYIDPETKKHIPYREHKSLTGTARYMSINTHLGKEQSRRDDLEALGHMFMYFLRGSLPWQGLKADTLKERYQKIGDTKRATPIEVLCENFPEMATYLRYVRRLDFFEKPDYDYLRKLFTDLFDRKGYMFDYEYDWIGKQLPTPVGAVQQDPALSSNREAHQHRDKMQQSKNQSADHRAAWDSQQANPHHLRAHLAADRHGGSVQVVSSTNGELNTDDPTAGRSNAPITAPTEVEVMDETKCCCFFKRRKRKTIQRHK

Row | Compound | remaining activity at 10 µM (382 unique human kinases [1]) [%] | remaining activity at 10 µM (382 unique human kinases [2]) [%] | remaining activity at 10 µM (382 unique human kinases [3]) [%] | remaining activity at 10 µM (382 unique human kinases [4]) [%] | remaining activity at 10 µM (382 unique human kinases [5]) [%] | remaining activity at 10 µM (382 unique human kinases [6]) [%] | remaining activity at 10 µM (382 unique human kinases [7]) [%] | remaining activity at 1 µM (382 unique human kinases [8]; compound 1 uM, read-out: % Enzyme Activity (relative to DMSO controls)) [%] | remaining activity at 10 µM (382 unique human kinases [8]; [10]) [%] | remaining activity at 10 µM (382 unique human kinases [9]) [%] | % Enzyme Activity (relative to DMSO controls) (382 unique human kinases [8]; compound 10 uM) [%] | % Enzyme Activity (relative to DMSO controls) (382 unique human kinases [9]) [%] | % Enzyme Activity (relative to DMSO controls) (382 unique human kinases [1]) [%] | % Enzyme Activity (relative to DMSO controls) (382 unique human kinases [2]) [%] | % Enzyme Activity (relative to DMSO controls) (382 unique human kinases [3]) [%] | % Enzyme Activity (relative to DMSO controls) (382 unique human kinases [4]) [%] | % Enzyme Activity (relative to DMSO controls) (382 unique human kinases [5]) [%] | % Enzyme Activity (relative to DMSO controls) (382 unique human kinases [6]) [%] | % Enzyme Activity (relative to DMSO controls) (382 unique human kinases [7]) [%]
1 | CC(C)c1cc(-c2n[nH]c(=O)n2-c2ccc3c(ccn3C)c2)c(O)cc1O [Ganetespib (STA9090)] | 82 | 87 | 59.7 | 98.3 | 85.7 | 87.2 | 84.6 |  |  |  |  |  |  |  |  |  |  |  | 
2 | CC(C)c1cc(-c2n[nH]c(=O)n2-c2ccc3c(ccn3C)c2)c(O)cc1O [Ganetespib] |  |  |  |  |  |  |  | 45.5 | 12.8 | 95.6 |  |  |  |  |  |  |  |  | 
3 | CCNC(=O)c1noc(-c2cc(C(C)C)c(O)cc2O)c1-c1ccc(CN2CCOCC2)cc1 [Luminespib] |  |  |  |  |  |  |  |  | 52.3 | 91.3 | 49.59 | 90.73 |  |  |  |  |  |  | 
4 | CCNC(=O)c1noc(-c2cc(C(C)C)c(O)cc2O)c1-c1ccc(CN2CCOCC2)cc1 [Luminespib (AUY-922)] | 99.7 | 99.3 | 97.9 | 85.5 | 116 | 116 | 104 |  |  |  |  |  | 98.54 | 97.40 | 96.94 | 83.59 | 112.88 | 114.11 | 102.76
